Values quoted from earlier work in patent US8349888B2, “Phytoestrogenic isoflavone compositions, their preparation and use thereof for protection against and treatment of radiation injury” (priority 2000, dated 2013).

Legend:
[1] = radioprotective doses

Compound	efficacy if given after radiation (mice)	behavioral toxicity [1]
O=c1cc(-c2ccc(O)cc2)oc2c([C@@H]3O[C@H](CO)[C@@H](O)[C@H](O)[C@H]3O)c(O)c([C@@H]3O[C@H](CO)[C@@H](O)[C@H](O)[C@H]3O)c(O)c12 [vicenin]	not effective at all	–
C[C@]12CC[C@@H]3c4ccc(O)cc4CC[C@H]3[C@@H]1CC[C@@H]2O [17-beta-estradiol]	–	behaviorally toxic
O=c1cc(-c2ccc(O)c(O)c2)oc2c([C@@H]3O[C@H](CO)[C@@H](O)[C@H](O)[C@H]3O)c(O)cc(O)c12 [orientin]	not effective at all	–
